Data as given in PubChem BioAssay AID256 (DTP/NCI, 2004).
Values joined by “and” are separate entries in the source; they are usually repeats but may differ in a detail not shown here. Equal values may be shown once. Inconclusive results and toxic doses are left out. How the source made its calls: active means survival T/C of 150% or more; inactive means T/C below 125% in these data.

System: CD2F1 mice, L1210 leukemia ip, survival T/C
Assay: NCI In Vivo Anticancer Drug Screen. Data for tumor model L1210 Leukemia (intraperitoneal) in CD2F1 (CDF1) mice
Settings: higher = longer survival
Method in brief: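 Read-out first: treated-group measurement over vehicle-control measurement, expressed as a ratio. Animals bore a transplanted tumor line and were dosed with compound or vehicle.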

[1] = endpoint: mean survival time, dose: 100.0 mg/kg/injection, schedule: Q04DX003 (ip), vehicle: saline with Tween-80
[2] = endpoint: mean survival time, dose: 200.0 mg/kg/injection, schedule: Q04DX003 (ip), vehicle: saline with Tween-80
[3] = endpoint: mean survival time, dose: 400.0 mg/kg/injection, schedule: Q04DX003 (ip), vehicle: saline with Tween-80
[4] = endpoint: mean survival time, dose: 100.0 mg/kg/injection, schedule: Q01DX009 (ip), vehicle: saline with Tween-80
[5] = endpoint: mean survival time, dose: 200.0 mg/kg/injection, schedule: Q01DX009 (ip), vehicle: saline with Tween-80

Measured: T/C

CC[C@]1(O)C[C@H]2CN(CCc3c([nH]c4ccccc34)[C@@](C(=O)OC)(c3cc4c(cc3OC)N(C=O)[C@H]3[C@@](O)(C(=O)OC)[C@H](OC(C)=O)[C@]5(CC)C=CCN6CC[C@]43[C@@H]65)C2)C1
inactive: endpoint: mean survival time, dose: 0.08 mg/kg/injection, schedule: Q01DX009 (ip), vehicle: water 121 % of control | endpoint: mean survival time, dose: 0.13 mg/kg/injection, schedule: Q01DX009 (ip), vehicle: water 122 % of control | endpoint: mean survival time, dose: 0.2 mg/kg/injection, schedule: Q04DX003 (ip), vehicle: saline 115 % of control | endpoint: mean survival time, dose: 0.2 mg/kg/injection, schedule: Q04DX003 (ip), vehicle: water 106 % of control | endpoint: mean survival time, dose: 0.23 mg/kg/injection, schedule: Q04DX003 (ip), vehicle: water 121 % of control and 98 % of control | endpoint: mean survival time, dose: 0.36 mg/kg/injection, schedule: Q01DX009 (ip), vehicle: water 104 % of control | endpoint: mean survival time, dose: 0.39 mg/kg/injection, schedule: Q04DX003 (ip), vehicle: water 118 % of control and 108 % of control | endpoint: mean survival time, dose: 0.4 mg/kg/injection, schedule: Q04DX003 (ip), vehicle: water 106 % of control and 112 % of control | endpoint: mean survival time, dose: 0.5 mg/kg/injection, schedule: Q01DX009 (ip), vehicle: saline 102 % of control | endpoint: mean survival time, dose: 0.5 mg/kg/injection, schedule: Q04DX004 (ip), vehicle: saline 117 % of control and 120 % of control and 112 % of control | endpoint: mean survival time, dose: 0.65 mg/kg/injection, schedule: Q04DX003 (ip), vehicle: water 112 % of control | endpoint: mean survival time, dose: 0.8 mg/kg/injection, schedule: Q04DX003 (ip), vehicle: water 103 % of control and 110 % of control | endpoint: mean survival time, dose: 1.0 mg/kg/injection, schedule: Q01DX009 (ip), vehicle: saline 68 % of control and 73 % of control | endpoint: mean survival time, dose: 1.0 mg/kg/injection, schedule: Q04DX004 (ip), vehicle: saline 119 % of control | endpoint: mean survival time, dose: 1.08 mg/kg/injection, schedule: Q04DX003 (ip), vehicle: water 118 % of control | endpoint: mean survival time, dose: 1.5 mg/kg/injection, schedule: Q04DX003 (ip), vehicle: saline 121 % of control | endpoint: mean survival time, dose: 1.5 mg/kg/injection, schedule: Q04DX004 (ip), vehicle: saline 119 % of control | endpoint: mean survival time, dose: 1.6 mg/kg/injection, schedule: Q04DX003 (ip), vehicle: saline 120 % of control | endpoint: mean survival time, dose: 1.6 mg/kg/injection, schedule: Q04DX003 (ip), vehicle: water 117 % of control and 108 % of control | endpoint: mean survival time, dose: 78.0 micrograms/kg/injection, schedule: Q01DX009 (ip), vehicle: water 102 % of control | endpoint: mean survival time, dose: 130.0 micrograms/kg/injection, schedule: Q01DX009 (ip), vehicle: water 108 % of control | endpoint: mean survival time, dose: 216.0 micrograms/kg/injection, schedule: Q01DX009 (ip), vehicle: water 114 % of control | endpoint: mean survival time, dose: 360.0 micrograms/kg/injection, schedule: Q01DX009 (ip), vehicle: water 124 % of control | endpoint: median survival time, dose: 62.5 micrograms/kg/injection, schedule: Q01DX009 (ip), vehicle: water 115 % of control | endpoint: median survival time, dose: 125.0 micrograms/kg/injection, schedule: Q01DX009 (ip), vehicle: water 121 % of control | endpoint: median survival time, dose: 1000.0 micrograms/kg/injection, schedule: Q01DX009 (ip), vehicle: water 95 % of control

C/C=C(/c1ccccc1)c1ccc(N(C)C)cc1
inactive: [1] 98 % of control | [2] 91 % of control | [3] 91 % of control

CNC1=C(C)C(=O)C2=C(C1=O)C(COC(N)=O)C1(OC)C3NC3CN21 (configuration not stated)
inactive: endpoint: mean survival time, dose: 1.5 mg/kg/injection, schedule: Q01DX001 (ip), vehicle: water 102 % of control | endpoint: mean survival time, dose: 3.0 mg/kg/injection, schedule: Q01DX001 (ip), vehicle: water 100 % of control | endpoint: mean survival time, dose: 6.0 mg/kg/injection, schedule: Q01DX001 (ip), vehicle: water 108 % of control | endpoint: mean survival time, dose: 12.0 mg/kg/injection, schedule: Q01DX001 (ip), vehicle: water 118 % of control | endpoint: mean survival time, dose: 24.0 mg/kg/injection, schedule: Q01DX001 (ip), vehicle: water 124 % of control

COC(=Nc1ccccc1)SSC(C)C
inactive: endpoint: mean survival time, dose: 6.25 mg/kg/injection, schedule: Q01DX009 (ip), vehicle: saline with Tween-80 93 % of control and 101 % of control | endpoint: mean survival time, dose: 12.5 mg/kg/injection, schedule: Q01DX009 (ip), vehicle: saline with Tween-80 97 % of control and 108 % of control | endpoint: mean survival time, dose: 25.0 mg/kg/injection, schedule: Q01DX009 (ip), vehicle: saline with Tween-80 98 % of control and 104 % of control | endpoint: mean survival time, dose: 50.0 mg/kg/injection, schedule: Q01DX009 (ip), vehicle: saline with Tween-80 98 % of control and 108 % of control | [4] 106 % of control | [5] 108 % of control

CC(CO)CCC(C)CO (configuration not stated)
inactive: [1] 100 % of control | [2] 95 % of control | [3] 100 % of control

CC1(C)N=C(N)N=C(N)N1c1ccc(Cl)c(Cl)c1
inactive: endpoint: mean survival time, dose: 25.0 mg/kg/injection, schedule: Q04DX002 (ip), vehicle: saline with Tween-80 102 % of control | endpoint: mean survival time, dose: 50.0 mg/kg/injection, schedule: Q04DX002 (ip), vehicle: saline with Tween-80 98 % of control | endpoint: mean survival time, dose: 100.0 mg/kg/injection, schedule: Q01DX001 (ip), vehicle: Klucel (hydroxypropylcellulose) (HPC) 96 % of control | endpoint: mean survival time, dose: 100.0 mg/kg/injection, schedule: Q04DX002 (ip), vehicle: saline with Tween-80 90 % of control

COc1ccc(C2C3CN(C4CCCCC4)C(=O)C3NN2C(C)=O)cc1 (configuration not stated)
inactive: [4] 91 % of control | [5] 89 % of control | endpoint: mean survival time, dose: 400.0 mg/kg/injection, schedule: Q01DX009 (ip), vehicle: saline with Tween-80 89 % of control

Cn1nc2ccccc2c1C#N
inactive: endpoint: mean survival time, dose: 50.0 mg/kg/injection, schedule: Q01DX001 (ip), vehicle: saline 102 % of control | endpoint: mean survival time, dose: 100.0 mg/kg/injection, schedule: Q01DX001 (ip), vehicle: saline 103 % of control | endpoint: mean survival time, dose: 200.0 mg/kg/injection, schedule: Q01DX001 (ip), vehicle: saline 96 % of control

Nc1nc2c(c(=O)[nH]1)N=C(CCc1ccccc1)CO2
inactive: endpoint: mean survival time, dose: 25.0 mg/kg/injection, schedule: Q01DX009 (ip), vehicle: other 91 % of control | endpoint: mean survival time, dose: 50.0 mg/kg/injection, schedule: Q01DX009 (ip), vehicle: other 93 % of control | endpoint: mean survival time, dose: 100.0 mg/kg/injection, schedule: Q01DX009 (ip), vehicle: other 87 % of control | endpoint: mean survival time, dose: 200.0 mg/kg/injection, schedule: Q01DX009 (ip), vehicle: other 87 % of control

[I][Pt+2][I].[NH-]CC1CCCC[N-]1 (configuration not stated)
inactive: endpoint: mean survival time, dose: 3.13 mg/kg/injection, schedule: Q04DX003 (ip), vehicle: distilled water + Tween-80 98 % of control | endpoint: mean survival time, dose: 6.25 mg/kg/injection, schedule: Q04DX003 (ip), vehicle: distilled water + Tween-80 95 % of control | endpoint: mean survival time, dose: 12.5 mg/kg/injection, schedule: Q04DX003 (ip), vehicle: distilled water + Tween-80 95 % of control | endpoint: mean survival time, dose: 25.0 mg/kg/injection, schedule: Q04DX003 (ip), vehicle: distilled water + Tween-80 104 % of control | endpoint: mean survival time, dose: 50.0 mg/kg/injection, schedule: Q04DX003 (ip), vehicle: distilled water + Tween-80 98 % of control
